Results as given in PubChem BioAssay AID2060487 (Molecular Pharmacology Branch, DTP, NCI, 2025).

Tested on: 997537-175-T-J1-PDC complex spheroid viability
Experiment: Anticancer human tumor 997537-175-T-J1-PDC patient-derived colon adenocarcinoma cell line growth inhibition [GQUAD]
Settings: for IC50: curve of first compound; for viability, T/C: stronger effect = lower value
In short: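 Multi-cell-type spheroids of tumor cells with HUVEC and mesenchymal stem cells, treated with drug combinations. Concentrations descend in half-log steps from near clinical Cmax, or from 10 microM where Cmax is unknown; viability read-out.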

[1] = second compound 0.0316 µM, first compound 0.0316 µM
[2] = second compound 0.0316 µM, first compound 0.1 µM
[3] = second compound 0.0316 µM, first compound 0.316 µM
[4] = second compound 0.0316 µM, first compound 1 µM
[5] = second compound 0.0316 µM, first compound 3.16 µM
[6] = second compound 0.0316 µM, first compound 10 µM
[7] = second compound 0.1 µM, first compound 0.0316 µM
[8] = second compound 0.1 µM, first compound 0.1 µM
[9] = second compound 0.1 µM, first compound 0.316 µM
[10] = second compound 0.1 µM, first compound 1 µM
[11] = second compound 0.1 µM, first compound 3.16 µM
[12] = second compound 0.1 µM, first compound 10 µM
[13] = second compound 0.316 µM, first compound 0.0316 µM
[14] = second compound 0.316 µM, first compound 0.1 µM
[15] = second compound 0.316 µM, first compound 0.316 µM
[16] = second compound 0.316 µM, first compound 1 µM
[17] = second compound 0.316 µM, first compound 3.16 µM
[18] = second compound 0.316 µM, first compound 10 µM
[19] = second compound 1 µM, first compound 0.0316 µM
[20] = second compound 1 µM, first compound 0.1 µM
[21] = second compound 1 µM, first compound 0.316 µM
[22] = second compound 1 µM, first compound 1 µM
[23] = second compound 1 µM, first compound 3.16 µM
[24] = second compound 1 µM, first compound 10 µM
[25] = second compound 3.16 µM, first compound 0.0316 µM
[26] = second compound 3.16 µM, first compound 0.1 µM
[27] = second compound 3.16 µM, first compound 0.316 µM
[28] = second compound 3.16 µM, first compound 1 µM
[29] = second compound 3.16 µM, first compound 3.16 µM
[30] = second compound 3.16 µM, first compound 10 µM
[31] = second compound 10 µM, first compound 0.0316 µM
[32] = second compound 10 µM, first compound 0.1 µM
[33] = second compound 10 µM, first compound 0.316 µM
[34] = second compound 10 µM, first compound 1 µM
[35] = second compound 10 µM, first compound 3.16 µM
[36] = second compound 10 µM, first compound 10 µM
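Note: spheroids exposed to the agents for 7 days.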
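Throughout, for viability, T/C: 100% = DMSO vehicle control viability.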

Compound: COc1cc(C2c3cc4c(cc3C(OC3OC5COC(C)OC5C(O)C3O)C3COC(=O)C23)OCO4)cc(OC)c1O (centres undefined) + CN(C)c1ccc(Nc2c3ccc(NC(=O)CCN4CCCC4)cc3nc3cc(NC(=O)CCN4CCCC4)ccc23)cc1
- IC50 (second compound 0.0316 µM): > 10 µM
- IC50 (second compound 0.1 µM): > 10 µM
- IC50 (second compound 0.316 µM): > 10 µM
- IC50 (second compound 1 µM): > 10 µM
- IC50 (second compound 3.16 µM): > 10 µM
- IC50 (second compound 10 µM): > 10 µM
- viability, T/C [1]: 93.8%
- viability, T/C [2]: 105%
- viability, T/C [3]: 96.5%
- viability, T/C [4]: 78.6%
- viability, T/C [5]: 74.1%
- viability, T/C [6]: 74.7%
- viability, T/C [7]: 113%
- viability, T/C [8]: 105%
- viability, T/C [9]: 101%
- viability, T/C [10]: 81.2%
- viability, T/C [11]: 95.2%
- viability, T/C [12]: 65.7%
- viability, T/C [13]: 97.2%
- viability, T/C [14]: 96.6%
- viability, T/C [15]: 91.4%
- viability, T/C [16]: 87.1%
- viability, T/C [17]: 92.3%
- viability, T/C [18]: 64.8%
- viability, T/C [19]: 89.1%
- viability, T/C [20]: 110%
- viability, T/C [21]: 90.2%
- viability, T/C [22]: 75.1%
- viability, T/C [23]: 91.2%
- viability, T/C [24]: 55.2%
- viability, T/C [25]: 78.7%
- viability, T/C [26]: 102%
- viability, T/C [27]: 76.7%
- viability, T/C [28]: 95.2%
- viability, T/C [29]: 83.2%
- viability, T/C [30]: 72.3%
- viability, T/C [31]: 79.7%
- viability, T/C [32]: 108%
- viability, T/C [33]: 99.9%
- viability, T/C [34]: 87.2%
- viability, T/C [35]: 89.8%
- viability, T/C [36]: 67.4%

Compound: C=CC(=O)N1CCN(c2nc(=O)n(-c3c(C)ccnc3C(C)C)c3nc(-c4c(O)cccc4F)c(F)cc23)C(C)C1 (centres undefined) + CN(C)c1ccc(Nc2c3ccc(NC(=O)CCN4CCCC4)cc3nc3cc(NC(=O)CCN4CCCC4)ccc23)cc1
- IC50 (second compound 0.0316 µM): > 10 µM
- IC50 (second compound 0.1 µM): > 10 µM
- IC50 (second compound 0.316 µM): > 10 µM
- IC50 (second compound 1 µM): > 10 µM
- IC50 (second compound 3.16 µM): > 10 µM
- IC50 (second compound 10 µM): > 10 µM
- viability, T/C [1]: 103%
- viability, T/C [2]: 99.2%
- viability, T/C [3]: 86.6%
- viability, T/C [4]: 68.8%
- viability, T/C [5]: 70.6%
- viability, T/C [6]: 85.6%
- viability, T/C [7]: 87.7%
- viability, T/C [8]: 88.4%
- viability, T/C [9]: 93.5%
- viability, T/C [10]: 82.1%
- viability, T/C [11]: 95.7%
- viability, T/C [12]: 89.8%
- viability, T/C [13]: 90.7%
- viability, T/C [14]: 98.5%
- viability, T/C [15]: 88.7%
- viability, T/C [16]: 77.5%
- viability, T/C [17]: 92.4%
- viability, T/C [18]: 74.7%
- viability, T/C [19]: 89.5%
- viability, T/C [20]: 93.1%
- viability, T/C [21]: 97.7%
- viability, T/C [22]: 67.9%
- viability, T/C [23]: 104%
- viability, T/C [24]: 96.2%
- viability, T/C [25]: 69.1%
- viability, T/C [26]: 81.1%
- viability, T/C [27]: 91.2%
- viability, T/C [28]: 83.5%
- viability, T/C [29]: 97.6%
- viability, T/C [30]: 81.2%
- viability, T/C [31]: 77%
- viability, T/C [32]: 85.7%
- viability, T/C [33]: 91.2%
- viability, T/C [34]: 98.4%
- viability, T/C [35]: 91.2%
- viability, T/C [36]: 93.9%
